What is called EC50 is the concentration giving half of the maximal effect. A higher EC50 goes with a less potent agent.

The target in series [1] is T1, Thyroid hormone receptor beta (Homo sapiens) (UniProt P10828).
T1 sequence (whole entry): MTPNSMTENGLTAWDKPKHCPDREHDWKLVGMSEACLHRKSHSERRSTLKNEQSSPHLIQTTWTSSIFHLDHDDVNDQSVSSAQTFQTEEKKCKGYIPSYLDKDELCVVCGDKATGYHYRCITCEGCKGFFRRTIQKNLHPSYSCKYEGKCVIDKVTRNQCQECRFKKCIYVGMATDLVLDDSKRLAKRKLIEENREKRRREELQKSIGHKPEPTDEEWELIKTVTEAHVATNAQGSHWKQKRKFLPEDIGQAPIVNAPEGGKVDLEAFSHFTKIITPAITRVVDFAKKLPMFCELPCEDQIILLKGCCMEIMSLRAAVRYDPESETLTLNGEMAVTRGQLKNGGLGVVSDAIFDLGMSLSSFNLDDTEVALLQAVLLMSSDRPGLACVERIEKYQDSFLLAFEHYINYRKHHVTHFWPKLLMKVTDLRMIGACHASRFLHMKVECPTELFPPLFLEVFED
Briefly: Agonist activity at GAL4 DNA binding domain fused thyroid hormone receptor beta (unknown origin) at 0.25 to 25 uM by FRET-based assay.

The target in a further series is T2, Cytochrome P450 1A2 (Homo sapiens, UniProt P05177).
T2 sequence (P05177 whole entry): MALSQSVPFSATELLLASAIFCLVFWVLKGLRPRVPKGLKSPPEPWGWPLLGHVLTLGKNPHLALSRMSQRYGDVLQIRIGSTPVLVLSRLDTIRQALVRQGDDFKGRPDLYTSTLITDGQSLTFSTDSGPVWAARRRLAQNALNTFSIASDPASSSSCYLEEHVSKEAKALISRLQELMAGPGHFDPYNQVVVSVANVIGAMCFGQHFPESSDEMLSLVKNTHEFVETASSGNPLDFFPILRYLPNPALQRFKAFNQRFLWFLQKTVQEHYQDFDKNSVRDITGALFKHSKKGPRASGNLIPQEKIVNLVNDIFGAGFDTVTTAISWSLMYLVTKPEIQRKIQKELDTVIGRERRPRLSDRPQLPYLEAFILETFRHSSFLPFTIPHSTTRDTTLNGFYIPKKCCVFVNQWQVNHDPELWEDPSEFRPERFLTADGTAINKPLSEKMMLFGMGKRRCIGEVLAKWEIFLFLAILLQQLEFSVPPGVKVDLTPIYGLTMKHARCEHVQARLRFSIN
As to the kind of experiment: Inhibition of human recombinant CYP1A2 up to 100 uM preincubated for 10 mins followed by NADPH addition and measured after 10 to 30 mins by P450-Glo luminescence assay. The conditions noted are these: recombinant enzyme. In kind it is ADME.

Series [2] has as its system Mus musculus. Briefly: Memory enhancement effect in C57BL/6 mouse assessed as time spent with novel object at 10 pg administered as dorsal hippocampal infusion by novel object recognition test. In kind it is functional.
For series [3], the system named is Mus musculus. As to the kind of experiment: Memory enhancement effect in C57BL/6 mouse assessed as time spent with novel object at 1 ng administered as dorsal hippocampal infusion by novel object recognition test. The series is classed as functional.
In series [4] the test system is Mus musculus. As to the kind of experiment: Memory enhancement effect in C57BL/6 mouse assessed as time spent with moved object at 0.5 mg/kg, ip by novel object recognition test. The series is classed as functional.
For series [5], the system named is Mus musculus. As to the kind of experiment: Memory enhancement effect in C57BL/6 mouse assessed as time spent with moved object at 5 mg/kg, ip by novel object recognition test. The series is classed as functional.
The subject of series [6] is Mus musculus. Briefly: Memory enhancement effect in C57BL/6 mouse assessed as time spent with novel object at 5 mg/kg, ip by novel object recognition test. The series is classed as functional.
The subject of series [7] is Mus musculus. As to the kind of experiment: Memory enhancement effect in C57BL/6 mouse assessed as time spent with moved object at 0.5 mg/kg, po administered via gavage by object recognition test. The series is classed as functional.
For series [8], the system named is Mus musculus. Briefly: Memory enhancement effect in C57BL/6 mouse assessed as time spent with moved object at 5 mg/kg, po administered via gavage by object recognition test. The series is classed as functional.
Series [9] concerns Mus musculus. Briefly: Memory enhancement effect in C57BL/6 mouse assessed as time spent with novel object at 0.5 mg/kg, po administered via gavage by novel object recognition test. The series is classed as functional.
For series [10], the target named is T3, Estrogen receptor (Homo sapiens, UniProt P03372).
T3 sequence (P03372 whole entry): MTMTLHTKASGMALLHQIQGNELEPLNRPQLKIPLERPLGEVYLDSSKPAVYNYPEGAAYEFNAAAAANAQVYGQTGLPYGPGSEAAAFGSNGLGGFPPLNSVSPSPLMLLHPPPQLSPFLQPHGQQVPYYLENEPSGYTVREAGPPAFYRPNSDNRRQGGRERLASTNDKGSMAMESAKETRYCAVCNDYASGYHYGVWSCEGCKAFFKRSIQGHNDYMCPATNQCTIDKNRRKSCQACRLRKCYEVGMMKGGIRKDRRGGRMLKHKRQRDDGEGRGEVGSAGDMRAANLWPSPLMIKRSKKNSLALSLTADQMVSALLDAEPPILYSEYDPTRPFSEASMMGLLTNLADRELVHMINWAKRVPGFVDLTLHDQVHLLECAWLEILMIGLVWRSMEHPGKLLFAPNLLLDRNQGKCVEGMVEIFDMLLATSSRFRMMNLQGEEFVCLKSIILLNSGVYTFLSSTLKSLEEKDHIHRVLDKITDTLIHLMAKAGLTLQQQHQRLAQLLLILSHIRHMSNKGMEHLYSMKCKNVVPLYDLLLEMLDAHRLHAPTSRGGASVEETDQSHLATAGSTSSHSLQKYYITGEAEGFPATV
Description: Agonist activity at estrogen receptor alpha (unknown origin) after 22 hrs by cell-based luciferase reporter gene assay

Series [11] has as its target T3, Estrogen receptor. The source holds these as a separate data set.
The next series has as its target Cytochrome P450 2C9 (Homo sapiens, UniProt P11712).
The next series addresses Cytochrome P450 3A4 (Homo sapiens, UniProt P08684).
In series [12] the target is T3, Estrogen receptor. As to the kind of experiment: cell-based.
Description: Agonist activity at GAL4 DNA binding domain fused full-length chimeric estrogen receptor alpha (unknown origin) by FRET-based assay

Activity calls are given as the source filed them. The rule behind the calls is not given here.

Chain of Cytochrome P450 2C9 (P11712 whole entry): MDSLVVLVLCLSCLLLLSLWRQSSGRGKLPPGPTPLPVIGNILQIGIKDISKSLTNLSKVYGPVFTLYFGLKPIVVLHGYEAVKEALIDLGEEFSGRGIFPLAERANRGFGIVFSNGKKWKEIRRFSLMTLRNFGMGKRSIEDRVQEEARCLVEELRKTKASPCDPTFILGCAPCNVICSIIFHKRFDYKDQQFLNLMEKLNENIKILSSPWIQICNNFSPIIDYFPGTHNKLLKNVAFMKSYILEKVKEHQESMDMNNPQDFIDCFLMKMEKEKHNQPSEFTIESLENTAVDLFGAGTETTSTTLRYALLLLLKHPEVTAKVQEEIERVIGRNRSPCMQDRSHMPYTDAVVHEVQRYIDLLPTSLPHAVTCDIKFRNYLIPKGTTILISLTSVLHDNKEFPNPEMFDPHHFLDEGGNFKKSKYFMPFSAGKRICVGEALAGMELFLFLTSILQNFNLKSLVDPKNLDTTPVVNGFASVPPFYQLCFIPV
Chain of Cytochrome P450 3A4 (P08684 whole entry): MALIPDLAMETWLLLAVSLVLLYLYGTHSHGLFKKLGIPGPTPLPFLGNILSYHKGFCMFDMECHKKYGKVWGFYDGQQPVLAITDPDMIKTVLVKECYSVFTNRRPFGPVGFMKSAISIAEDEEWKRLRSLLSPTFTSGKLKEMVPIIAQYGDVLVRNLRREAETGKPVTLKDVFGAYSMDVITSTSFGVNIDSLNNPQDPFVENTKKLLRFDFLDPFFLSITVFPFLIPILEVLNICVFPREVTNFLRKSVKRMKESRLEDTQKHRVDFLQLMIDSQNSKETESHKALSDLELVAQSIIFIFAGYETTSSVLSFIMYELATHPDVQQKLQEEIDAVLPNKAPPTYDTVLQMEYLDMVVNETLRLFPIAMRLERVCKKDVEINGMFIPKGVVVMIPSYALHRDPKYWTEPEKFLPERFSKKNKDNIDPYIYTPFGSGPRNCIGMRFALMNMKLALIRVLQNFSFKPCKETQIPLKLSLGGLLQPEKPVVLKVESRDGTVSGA
Description for Cytochrome P450 2C9: Inhibition of human recombinant CYP2C9 preincubated for 10 mins followed by NADPH addition and measured after 10 to 30 mins by P450-Glo luminescence assay
Description for Cytochrome P450 3A4: Inhibition of human recombinant CYP3A4 preincubated for 10 mins followed by NADPH addition and measured after 10 to 30 mins by P450-Glo luminescence assay

Take `OC[C@H]1CC[C@H](c2ccc(O)cc2)CC1`: the result in series [1] was inactive. Besides, the “inhibition (INH)” value on Cytochrome P450 1A2 is reported as “Not Active”. The Time in the series with Mus musculus [2] turned out to be 0.88 s; with Mus musculus [3] it was 1.08 s; in the series on Mus musculus [4] it was 3.93 s; in the series on Mus musculus [5] it was 2.78 s; with Mus musculus [6] it was 1.65 s; in the series on Mus musculus [7], 3.65 s. Moreover, the Time in the series on Mus musculus [8] amounted to 5.06 s; in the series on Mus musculus [9] it was 5.3 s. Also, the EC50 on Estrogen receptor [10] is 20.4 µM; on Estrogen receptor [11], > 10 µM; at Cytochrome P450 2C9 it was 34 µM; at Cytochrome P450 3A4, 89 µM; at Estrogen receptor [12] it was 0.93 µM.

The values are drawn from ChEMBL document CHEMBL4371004, “A-C Estrogens as Potent and Selective Estrogen Receptor-Beta Agonists (SERBAs) to Enhance Memory Consolidation under Low-Estrogen Conditions” (J Med Chem, 2018).
